The values below come from patent US8940766B2, “Methods for preventing and/or treating lysosomal storage disorders” (Amicus Therapeutics, Inc., priority 2009, dated 2015).

Data set [1] is described as follows: Blood brain barrier penetration after oral administration to mice. Format: in vivo, mice (C57BL/6). Particulars: single 30 mg/kg (free base equivalent) p.o. dose, FIGS. 1A-C. As to the method:
For this purpose, 8-week old wild-type male mice (C57BL/6) were administered a single 30 mg/kg (free base equivalent) p.o. dose of reference or test compound by gavage (n=3 mice per time point). Dosing solutions were prepared in water. After dosing, mice were euthanized with CO2 at the following time points: 0-, 0.5-, 1-, and 4-hour post-dose. […] Similarly, brains were collected from each mouse. Plasma was derived by spinning whole blood at 2700 g for 10 minutes at 4° C. followed by storage on dry ice. Whole brains were washed in cold PBS to remove contaminating blood, blotted dry, flash frozen on dry ice, and ultimately stored at −80° C. until analysis. To prepare brain samples for analysis, 50-100 mg of tissue was homogenized in […]. Samples were then clarified by centrifugation. Next, 25 μl of the brain homogenate supernatant or 25 μl of plasma were combined with 25 μl of acetonitrile:water (95/5). […] Between 20 and 30 μl sample was injected for analysis. […] When Compound B was analyzed, Compound A was used as internal standard (150.1/130.1). For calculating drug concentrations, raw data for plasma (ng/mL) and brain (ng/g) was converted to nM using the molecular weight of respective compounds and assuming 1 g of tissue is equivalent to 1 mL volume. Concentration as a function of time was plotted in GraphPad Prism version 4.02.

The target of data set [2] is T1, GCase (Mus musculus, UniProt P17439).
T1 construct: Liver, spleen, lung, and brain tissues were removed; from tissue; host or cells: brain, spleen, liver, lung of C57BL/6 mice
T1 sequence (P17439 20-515): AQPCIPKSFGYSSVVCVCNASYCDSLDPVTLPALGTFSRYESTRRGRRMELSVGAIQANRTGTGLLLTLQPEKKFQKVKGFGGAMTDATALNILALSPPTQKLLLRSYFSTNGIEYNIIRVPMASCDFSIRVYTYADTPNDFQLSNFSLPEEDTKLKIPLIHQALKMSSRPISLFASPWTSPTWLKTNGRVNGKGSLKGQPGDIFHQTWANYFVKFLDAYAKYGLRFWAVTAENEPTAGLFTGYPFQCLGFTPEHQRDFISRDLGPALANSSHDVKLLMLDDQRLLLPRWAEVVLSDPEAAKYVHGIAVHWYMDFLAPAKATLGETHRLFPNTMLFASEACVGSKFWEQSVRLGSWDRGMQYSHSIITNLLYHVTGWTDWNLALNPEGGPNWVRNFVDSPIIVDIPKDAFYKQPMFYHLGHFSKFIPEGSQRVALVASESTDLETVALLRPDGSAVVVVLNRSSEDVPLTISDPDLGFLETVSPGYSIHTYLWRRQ
Put plainly: GCase enhancement in tissues of orally dosed mice. Format: in vivo, mice (C57BL/6). As to conditions: for GCase increase: nine doses over 2 weeks, 24-hour washout. The procedure:
(§1) The ability of orally administered test compounds (the hydrochloride salt form of Compound A and Compound B) to elevate GCase levels as compared to reference compound, IFG-tartrate, was assessed in mice. […] Seven animals were used per dose. The dosing solutions were prepared in water. Compounds were administered over 2 weeks as follows: week 1, Mon-Fri (On), Sat-Sun (Off); week 2, Mon-Thu (On); necropsy on Friday. Thus, a total of 9 doses (dosing solutions prepared fresh every day) were given to each mouse, with a 24-hour washout between the last dose and necropsy.
(§2) Plasma was collected by spinning blood at 2700 g for 10 minutes at 4° C. Liver, spleen, lung, and brain tissues were removed, washed in cold PBS, blotted dry, flash frozen on dry ice, and stored at −80° C. until analysis. GCase levels were measured by homogenizing approximately 50 mg tissue in 500 μL McIlvane (MI) buffer (100 mM sodium citrate, 200 mM sodium phosphate dibasic, 0.25% sodium taurocholate, and 0.1% Triton X-100, pH 5.2) at pH 5.2 for 3-5 seconds on ice with a micro homogenizer. Homogenates were then incubated at room temperature without and with 2.5 mM conduritol-B-epoxide (CBE) for 30 min. Finally, 3.7 mM 4-methylumbeliferryl-β-glucoside (4-MUG) substrate was added and incubated at 37° C. for 60 min. Reactions were stopped by addition of 0.4 M glycine, pH 10.6. Fluorescence was measured on a plate reader for 1 sec/well using 355 nm excitation and 460 nm emission. Total protein was determined in lysates using the MicroBCA kit according to the manufacturer's instructions. A 4-methylumbelliferone (4-MU) standard curve ranging from 1.0 nM to 50 μM was run in parallel for conversion of raw fluorescence data to absolute GCase activity (in the presence and absence of CBE) and expressed as nanomoles of 4-MU released per milligram of protein per hour (nmol/mg protein/hr). GCase levels and protein levels were calculated using Microsoft Excel (Redmond, Wash.) and GraphPad Prism version 4.02.

Data set [3] is described as follows: Compound concentration in brain, spleen and plasma samples of GCase enhancement study. Format: in vivo, mice (C57BL/6). As to conditions: nine doses; for Concentration: 24 hours after last dose. As to the method:
as §1, §2

In the next data set the target is T2, lysosomal GCase (Homo sapiens, UniProt P04062).
T2 construct: assayed in situ using fibroblasts established from a normal subject; endogenous in cells; host or cells: fibroblasts from a normal subject
T2 sequence (P04062 40-536): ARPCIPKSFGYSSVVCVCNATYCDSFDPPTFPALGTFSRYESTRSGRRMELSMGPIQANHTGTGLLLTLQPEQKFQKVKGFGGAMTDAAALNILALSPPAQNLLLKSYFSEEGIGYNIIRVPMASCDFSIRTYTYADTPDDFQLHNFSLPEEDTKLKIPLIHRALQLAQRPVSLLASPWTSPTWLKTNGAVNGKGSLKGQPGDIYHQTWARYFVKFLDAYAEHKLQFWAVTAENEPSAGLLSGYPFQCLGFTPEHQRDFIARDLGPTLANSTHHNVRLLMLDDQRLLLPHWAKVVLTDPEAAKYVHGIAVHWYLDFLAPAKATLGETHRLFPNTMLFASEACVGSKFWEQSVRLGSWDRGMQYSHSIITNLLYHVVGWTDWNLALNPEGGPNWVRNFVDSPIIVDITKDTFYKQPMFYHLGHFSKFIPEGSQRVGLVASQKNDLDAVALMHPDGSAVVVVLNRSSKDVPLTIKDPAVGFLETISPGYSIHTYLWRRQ
Description: In situ washout assay in fibroblasts (recovery of lysosomal GCase activity after compound removal). Particulars: fibroblasts treated at IC90 for 16-24 hours, then drug-free medium; single exponential fit. Format: cell-based. The procedure:
Cells seeded in 48-well plates were incubated with the indicated concentrations of compound for 16-24 hours. For the dose-response assays, cells were incubated with the in situ substrate 5-(pentafluorobenzoylamino)fluorescein di-β-D-glucopyranoside (PFBFDβGlu) for 1 hour and subsequently lysed to determine the extent of substrate hydrolysis in the presence of compound. […] Inhibition was determined as the ratio of activity in the presence of compound to that in the absence of compound. […] Cells were washed extensively and incubated in drug-free medium to allow net compound efflux from cells. Cells were then tested for lysosomal GCase activity at 2 hour intervals over a total period of 8 hours following compound removal. The increase in activity over time was fitted with a single exponential function to determine the compound's washout time.

Data set [4] deals with T3, GCase (Homo sapiens, UniProt P04062).
T3 sequence (P04062 40-536): T2 sequence (P04062 40-536)
Description: Concentration-dependent increase in GCase activity (EC50, Emax). Format: cell-based. As to conditions: result in words.

Setting [5] is: brain, 10 mg/kg (free base equivalent) p.o.
[6] abbreviates: spleen, 10 mg/kg (free base equivalent) p.o.
Where [7] appears, read: mice, nine p.o. doses over 2 weeks, result in words.

Values joined by “and” are separate entries in the source; they are usually repeats but may differ in a detail not shown here. Equal values may be shown once.

For `O[C@@H]1[C@H](CF)CNC[C@H]1O` [Compound A, (3R,4R,5R)-5-(fluoromethyl)piperidine-3,4-diol], the “blood brain barrier crossing compared to IFG” value in data set [1] was “crossed the blood brain barrier more readily as compared to IFG”. Besides, the GCase increase at GCase [2] (setting [5]) is reported as 2.5 -fold; on GCase [2] (brain, 100 mg/kg (free base equivalent) p.o.) it was 3.5 -fold; on GCase [2] (setting [6]) it was 1.9 -fold; at GCase [2] (spleen, 100 mg/kg (free base equivalent) p.o.), 2.8 -fold. Also, the “Concentration in GCase assays after dilution (value in parenthesis)” value in data set [3] (brain sample, 10 mg/kg p.o.) is 0.5 nM; in data set [3] (brain sample, 100 mg/kg p.o.) it was 3 nM; in data set [3] (spleen sample, 10 mg/kg p.o.), 0.3 nM; in data set [3] (spleen sample, 100 mg/kg p.o.) it was 1.1 nM.

As to `OC[C@H]1CNC[C@@H](O)[C@@H]1O` [IFG, (3R,4R,5R)-5-(hydroxymethyl)-3,4-piperidinediol], the GCase increase is 1.5 -fold at GCase [2] (setting [5]); 2.2 -fold and 2.1 -fold at GCase [2] (brain, 100 mg/kg (free base equivalent) p.o., 100 mg/kg); 1.6 -fold on GCase [2] (setting [6]); 1.9 -fold and 2.0 -fold at GCase [2] (spleen, 100 mg/kg (free base equivalent) p.o., 100 mg/kg). Also, the “Concentration in GCase assays after dilution (value in parenthesis)” value in data set [3] (brain sample, 10 mg/kg p.o.) was 0.2 nM; in data set [3] (brain sample, 100 mg/kg p.o., 100 mg/kg) it was 0.7 nM and 1.1 nM; in data set [3] (spleen sample, 10 mg/kg p.o.), 0.5 nM; in data set [3] (spleen sample, 100 mg/kg p.o., 100 mg/kg), 2.6 nM and 4.2 nM. For the same molecule, the Concentration in data set [3] (brain, 10 mg/kg p.o.) is 49 ± 2.4 nM; in data set [3] (brain, 100 mg/kg p.o., 100 mg/kg), 182 ± 13 nM and 287 ± 74 nM; in data set [3] (plasma, 10 mg/kg p.o.) it was 67 ± 10 nM; in data set [3] (spleen, 10 mg/kg p.o.), 150 ± 12 nM; in data set [3] (spleen, 100 mg/kg p.o., 100 mg/kg), 711 ± 100 nM and 1139 ± 220 nM.

Usually melting point stands for the temperature of the solid-liquid transition. `Cl.O[C@@H]1[C@H](CF)CNC[C@H]1O` [Compound A-HCl, (3R,4R,5R)-5-(fluoromethyl)piperidine-3,4-diol hydrochloride] gave a melting point of 200 to 202 °C. The “In Situ Washout” value at lysosomal GCase amounted to 6.6 ± 0.12 h. Moreover, at GCase [2] (setting [7]), the “GCase enhancement at lower doses compared to IFG-tartrate” value is given as “unexpectedly greater than that observed with IFG-tartrate even when far lower doses”; the “GCase enhancement in brain, spleen, liver and lung compared to control or IFG-tartrate” value was “statistically significant greater GCase enhancement in brain, spleen, liver and lung as compared to mice administered control or IFG-tartrate”. In addition, on GCase [4], the “effect on GCase activity” value was “concentration-dependent increase in GCase activity” and the “enhancement of enzyme activity compared to IFG-tartrate” value is reported as “enhanced enzyme activity to the same maximum level at much lower concentration”.
